According to publication PMC9775153, “Portability of a Small-Molecule Binding Site between Disordered Proteins” (Biomolecules, 2022):
Read-outs that look alike come from different tables or passages of the source.

Assays:
[1] = target: T1, Myc353–437 (Homo sapiens, UniProt P01106); assay: Tyrosine fluorescence quenching titration, excess 34RH; conditions: 1 µM Myc353–437, excess 34RH, 1xPBS, 25 °C, pH 7.4; Langmuir binding isotherm; read-out: dissociation constant (KD)
T1 construct: 6xHis tag + TEV site (N, cleaved yes); made in house; host or cells: E. coli BL21(DE3) pLysS
T1 sequence (P01106 368-452): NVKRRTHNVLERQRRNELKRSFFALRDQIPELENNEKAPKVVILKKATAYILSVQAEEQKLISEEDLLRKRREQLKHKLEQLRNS
Procedure: (§1) The lyophilized protein (or peptide) was reconstituted in ultrapure water and incubated to room temperature for at least 1 hr. The protein or peptide was then sterile filtered using a pre-wet 0.2 μm polyethylene sulfone (PES) filter (VWR), and the concentration was determined by the absorbance at 274 nm using the extinction coefficient per tyrosine of ε274 = 1470 M^−1cm^−1. The final stock concentrations ranged from 50 to 100 μM.
For excess 34RH tyrosine fluorescence quenching experiments, samples were prepared with the following buffer components: sterile filtered water, 1xPBS (137 mM NaCl, 2.7 mM KCl, 4.3 mM Na2HPO4, 1.4 mM KH2PO4), and 5% total DMSO. […] All samples for fluorescence measurements maintained a final 5% DMSO concentration.
The samples were incubated for at least 15 min before fluorescence was measured. […] The fluorescence data were background corrected using buffer (for samples with only protein) or small molecule (for samples containing protein and 34RH) (Figure S4). The absorbance due to 34RH and protein at the excitation and emission wavelengths can suppress the observed fluorescence intensity to give rise to the inner filter effect. To account for this suppression, we corrected the fluorescence signals using Equation (3). This correction accounted for the fluorescence suppression due to the absorbance of both 34RH and the protein [47]. […]

[2] = target: T1, Myc353–437; assay: Equimolar tyrosine fluorescence quenching titration; conditions: equimolar Myc353–437 and 34RH, 1x PBS, 25 °C, pH 7.4; 1:1 binding model
Procedure: 5 x 1 05 y = m 1 * x/ ( m 2 + x)
Wavel ength (nm ) [34Rh] µM
Fig S5. Equimolar Myc353-437 and 34RH interaction monitored via tyrosine fluorescence quenching. (A) 50 µM Myc353-437 in the presence (filled black squares) and absence (open black squares) equimolar 34RH in 1x PBS at 25 ℃, pH 7.4. (B) Equilibrium quenching of […]
µM. Error bars represent the standard error of three independent trials. Representative fluorescence signals were inner filter corrected to account for any fluorescence suppression due the absorbance of protein and 34RH [46]. The quenching data was fitted to a binding model shown below described in Dobrev et al.
Fraction Quenched = Q!"# × $
Here, Qmax is the fraction quenched for the formation of the complete complex between Myc353-437 and 34RH. [C]tot is the total concentration of Myc353-437 or 34RH and KD the dissociation constant.

[3] = target: T2, MaxRH (Homo sapiens, UniProt P61244, K77E/M74V/Q72L/R75Q/R76A/Y73S); assay: Tyrosine fluorescence quenching titration; format: binding; conditions: for Kd: 1 µM MaxRH, read-out: dissociation constant (KD)
T2 construct: 6xHis tag + TEV site (N, cleaved yes); made in house; host or cells: E. coli BL21(DE3) pLysS
T2 sequence (P61244 whole entry Q72L/Y73S/M74V/R75Q/R76A/K77E): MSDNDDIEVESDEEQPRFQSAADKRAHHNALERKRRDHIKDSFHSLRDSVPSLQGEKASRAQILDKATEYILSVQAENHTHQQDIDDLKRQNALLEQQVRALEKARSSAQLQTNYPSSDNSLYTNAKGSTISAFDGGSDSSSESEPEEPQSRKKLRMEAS
Procedure: as §1
(§2) For excess 34RH tyrosine fluorescence quenching experiments, samples were prepared with the following buffer components: sterile filtered water, 1xPBS (137 mM NaCl, 2.7 mM KCl, 4.3 mM Na2HPO4, 1.4 mM KH2PO4), and 5% total DMSO. The pH of the buffer was adjusted to 6 or 7.4 depending on the experiment performed. Three separate samples were prepared in 1xPBS and 5% total DMSO: one containing 50 μM 34RH alone, one containing 1 μM of protein and 50 μM 34RH, and one containing 1 μM protein alone. For the 34RH containing samples, the compound was delivered from a 1 mM DMSO stock. These samples were then serially diluted two-fold from 50 μM 34RH to 1.56 μM 34RH. All samples for fluorescence measurements maintained a final 5% DMSO concentration.
(§3) The samples were incubated for at least 15 min before fluorescence was measured. The samples were excited at 274 nm, and the emission spectra were obtained from 285 to 340 nm using 5 nm excitation and 5 nm emission slits using a Horiba Fluoromax 4 fluorometer. The fluorescence data were background corrected using buffer (for samples with only protein) or small molecule (for samples containing protein and 34RH) (Figure S4). The absorbance due to 34RH and protein at the excitation and emission wavelengths can suppress the observed fluorescence intensity to give rise to the inner filter effect. To account for this suppression, we corrected the fluorescence signals using Equation (3). This correction accounted for the fluorescence suppression due to the absorbance of both 34RH and the protein [47]. (3) Fcorr=Fobs∗ 10^Aex+ Aem/2
(§4) Here, the corrected fluorescence is Fcorr, the background-subtracted observed fluorescence is Fobs, and Aex and Aem are the total absorbance at the excitation and emission wavelengths, respectively. The amount of protein fluorescence quenched by 34RH at a particular concentration was calculated using Fcorr at λ = 304 nm (Equation (4)). (4) Fraction Quenched=1−Fcorr304nm of Protein +34RH/ Fcorr304nm of Protein only
(§5) The quenching data were fit to a Langmuir binding isotherm using Equation (5), from which the dissociation constant (KD) was obtained. Here, Qmax describes the maximum fraction quenched, [L]T is the total 34RH concentration, and [P]T is the total protein concentration. The total concentration of the protein was 1 µM for all fluoresce experiments conducted at a constant protein concentration. (5) Fraction Quenched=Qmax∗([L]T+P]T+ KD−(L]T+P]T+ KD)^2−4 ∗ L]T ∗ P]T/2∗[L]T

[4] = target: T3, MaxRH-N78E (Homo sapiens, UniProt P61244, K77E/M74V/N78E/Q72L/R75Q/R76A/Y73S); assay: Tyrosine fluorescence quenching titration; format: binding; conditions: MaxRH-N78E mutant
T3 construct: 6xHis tag + TEV site (N, cleaved yes); made in house; host or cells: E. coli BL21(DE3) pLysS
T3 sequence (P61244 whole entry Q72L/Y73S/M74V/R75Q/R76A/K77E/N78E): as the sequence (P61244 whole entry Q72L/Y73S/M74V/R75Q/R76A/K77E) above, with N78E counted along it
Procedure: as §1, §2, §3, §4, §5

[5] = target: T4, MaxRH-Y115F/Y123F (Homo sapiens, UniProt P61244, K77E/M74V/Q72L/R75Q/R76A/Y115F/Y123F/Y73S); assay: Tyrosine fluorescence quenching titration; format: binding; conditions: 1 µM MaxRH-Y115F/Y123F
T4 construct: 6xHis tag + TEV site (N, cleaved yes); made in house; host or cells: E. coli BL21(DE3) pLysS
T4 sequence (P61244 whole entry Q72L/Y73S/M74V/R75Q/R76A/K77E/Y115F/Y123F): as the sequence (P61244 whole entry Q72L/Y73S/M74V/R75Q/R76A/K77E) above, with Y115F, Y123F counted along it
Procedure: as §1, §2, §3, §4, §5

[6] = target: T5, Myc353–437 A401E (Homo sapiens, UniProt P01106, A416E); assay: Tyrosine fluorescence quenching titration; format: binding; conditions: Myc353–437 A401E mutant
T5 construct: We constructed Myc353–437 A401E to determine if the same flanking residue would be permissive; 6xHis tag + TEV site (N, cleaved yes); made in house; host or cells: E. coli BL21(DE3) pLysS
T5 sequence (P01106 368-452 A416E): as the sequence (P01106 368-452) above, with A49E counted along it
Procedure: as §1, §2, §3, §4, §5

[7] = target: T6, Myc353–437 E410N (Homo sapiens, UniProt P01106, E425N); assay: Tyrosine fluorescence quenching titration; format: binding; conditions: Myc353–437 E410N mutant
T6 construct: 6xHis tag + TEV site (N, cleaved yes); made in house; host or cells: E. coli BL21(DE3) pLysS
T6 sequence (P01106 368-452 E425N): as the sequence (P01106 368-452) above, with E58N counted along it
Procedure: as §1, §2, §3, §4, §5

[8] = target: T7, Myc402–412 peptide (Homo sapiens, UniProt P01106); assay: Tyrosine fluorescence quenching titration; format: binding
T7 construct: purchased Genscript; host or cells: solid phase peptide synthesis
Procedure: as §1, §2, §3, §4, §5

[9] = target: T8, P21 Max (Homo sapiens, UniProt P61244); assay: Tyrosine fluorescence quenching titration; format: binding; conditions: 1 µM P21 Max, pH 7.4
T8 construct: 6xHis tag + TEV site (N, cleaved yes); made in house; host or cells: E. coli BL21(DE3) pLysS
T8 sequence (P61244 1-151 isoform P61244-2): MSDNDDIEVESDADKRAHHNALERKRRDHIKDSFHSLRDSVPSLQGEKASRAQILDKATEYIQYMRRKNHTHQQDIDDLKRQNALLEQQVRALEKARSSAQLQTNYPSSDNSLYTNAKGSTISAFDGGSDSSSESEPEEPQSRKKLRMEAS
Procedure: as §1, §2, §3, §4, §5

[10] = target: T9, P22 Max (Homo sapiens, UniProt P61244); assay: Tyrosine fluorescence quenching titration; format: binding; conditions: 1 µM P22 Max
T9 construct: 6xHis tag + TEV site (N, cleaved yes); made in house; host or cells: E. coli BL21(DE3) pLysS
T9 sequence (P61244 whole entry): as the sequence (P61244 whole entry Q72L/Y73S/M74V/R75Q/R76A/K77E) above, with L72Q, S73Y, V74M, Q75R, A76R, E77K counted along it
Procedure: as §1, §2, §3, §4, §5

[11] = Imide pKa determination by UV/Vis; format: physicochemical; conditions: 1xPBS at various pH values; UV/Vis absorbance at 327 nm, 10 µM 34RH in 1xPBS; read-out: pKa of the imide group of the rhodanine heterocycle
Procedure: The imide pKa of 34RH was determined using UV/Vis by measuring the absorbance of 10 µM of 34RH in 1xPBS at various pH values using an Agilent 8453 UV/Vis spectrophotometer (Figure S2). The absorbance at 327 nm for each pH value was fit to a curve using the Henderson-Hasselbalch (shown in Equations (1) and (2)), where c is the pKa, x is the pH, a is the signal for the fully protonated acid, and b is the signal for the fully ionized base. (1) pKa−pH=log acid/base (2) y=a+b∗10^c−x/1+10^c−x

[12] = Dynamic light scattering (DLS) of 34RH; format: physicochemical; conditions: for DLS correlation function (nano-sized particles): 1xPBS, 5% DMSO, pH 7.4
Procedure: The small molecule (Z)-4-((4-oxo-2-thioxothiazolidin-5-ylidene)methyl)benzoic acid (hereafter referred to as 34RH) was previously synthesized according to established procedures, and the structure was confirmed by ^1H and ^13C NMR (Figure S6) using a 400 MHz spectrometer. The dry compound was stored at 4 °C. Stock solutions (1 mM) of 34RH were made using either dimethyl sulfoxide (DMSO) or ethanol and stored at −20 °C. Fluorescence and dynamic light scattering (DLS) experiments were performed using DMSO, while circular dichroism (CD) was conducted using ethanol to avoid the high absorbance of DMSO at short wavelengths. DLS measurements were performed on 34RH using an LS Spectrophotometer (LS Instruments) at 25 °C (Figure S3). The dispersant viscosity was set for water. Samples were analyzed in 1xPBS (pH 7.4) and 5% total DMSO. The compound was serially diluted two-fold from 100 μM to a final concentration of 6.25 μM. Samples were placed into 5 mm cylindrical glass cuvettes (LS Instruments) and measured using a 600 nm laser at a 90° angle for 20 s. The data were analyzed using LS Spectrophotometer software provided by the manufacturer.

[13] = target: T2, MaxRH; assay: Circular dichroism with and without 34RH; conditions: 1 µM MaxRH, 50 µM 34RH
Procedure: (§6) Samples containing Myc353–437, Myc402–412 peptide, MaxRH, Max isoforms, or mutants in the absence and presence of excess concentrations of 34RH were prepared in 1xCD buffer (50 mM KF, 4.3 mM NaH2PO4, 1.4 mM KH2PO4, 5% ethanol). The pH of the buffer was adjusted to either 6 or 7.4 depending on the experiment conducted. The compound was delivered from a 1 mM ethanol stock solution. Samples were incubated for 1 hr before measurement. The far UV-spectra of the proteins and peptide were recorded in a quartz cuvette with a path length of 0.1 cm using a Jasco J720 spectropolarimeter. The samples were scanned from 270 to 195 nm with an increment of 1 nm, constant bandwidth of 10 nm, and a scanning speed of 1 nm per minute. After subtracting the buffer signal, the raw data in millidegrees was converted to mean residue ellipticity (MRE).

[14] = target: T4, MaxRH-Y115F/Y123F; assay: Circular dichroism with and without 34RH; conditions: 1 µM MaxRH-Y115F/Y123F, 50 µM 34RH
Procedure: as §6

[15] = target: T1, Myc353–437; assay: Circular dichroism with and without 34RH; conditions: 2.5 µM Myc353–437, 50 µM 34RH
Procedure: as §6

[16] = target: T8, P21 Max; assay: Circular dichroism with and without 34RH; conditions: 4 µM P21 Max, 50 µM 34RH, pH 7.4
Procedure: as §6

[17] = target: T9, P22 Max; assay: Circular dichroism with and without 34RH; conditions: 1 µM P22 Max, 50 µM 34RH, pH 7.4
Procedure: as §6

[18] = target: T7, Myc402–412 peptide; assay: Circular dichroism with and without small molecule; conditions: 2.5 µM Myc402–412 peptide, 50 µM 34RH
Procedure: as §6

With `O=C1NC(=S)S/C1=C\c1ccc(C(=O)O)cc1` [34RH, (Z)-4-((4-oxo-2-thioxothiazolidin-5-ylidene)methyl)benzoic acid] the Kd [1] was 3.9 ± 1.3 µM, the Kd [2] was 5.9 ± 0.8 µM and the Kd ([3]; pH 6) was 9.1 ± 3.9 µM. For the same molecule, the Kd ([3]; pH 7.4) was 23.4 ± 1.1 µM, the “affinity weaker than in the Myc context” value ([3]; MaxRH vs Myc353–437, pH 7.4) was “about 6 fold” and the “affinity weaker relative to the peptide” value ([3]; MaxRH vs Myc402–412 peptide, pH 7.4) was ~2 fold. The “improvement of binding to MaxRH at pH 6” value ([3]; pH 6 vs pH 7.4) was 2.5 fold, the “binding by titratable tyrosine quenching” value [4] was “complete loss of observable binding” and the Kd [5] was 14.9 ± 1.9 µM. For the same molecule, the “binding by tyrosine quenching” value [6] was “no detectable binding”, the “binding by tyrosine quenching” value [7] was “eliminated binding” and the “change in affinity, Myc402–412 peptide vs Myc353–437” value [8] was 3 fold. The “difference in affinity between Myc353–437 and Myc402–412 contexts” value [8] was “less than 0.7 kcal mol^−1”, the Kd ([8]; 1 µM Myc402–412 peptide, excess 34RH, Langmuir binding isotherm) was 11.5 ± 1.2 µM and the “titratable tyrosine fluorescence quenching (binding)” value [9] was “no titratable quenching”. The “titratable tyrosine fluorescence quenching (binding)” value ([10]; pH 6 (monomeric)) was “no titratable quenching”, the “titratable tyrosine fluorescence quenching (binding)” value ([10]; pH 7.4) was “does not exhibit titratable quenching” and the pKa [11] was 5.3 ± 0.3. For the same molecule, the “DLS correlation function (nano-sized particles)” value ([12]; 100 µM) was “a correlation was observed”, the “DLS correlation function (nano-sized particles)” value ([12]; concentrations below 50 µM) was “no correlation function” and the “solubility based on dynamic light scattering” value ([12]; neutral pH) was “good solubility”. For the same molecule, the “effect on conformation (CD)” value ([13]; pH 6) was “remaining disordered”, the “effect on conformation (CD)” value ([13]; pH 7.4) was “did not change the conformation” and the “effect on conformation (CD)” value [14] was “remains disordered”. For the same molecule, the “effect on average conformation (CD)” value [15] was “did not substantially alter the average conformation”, the “effect on CD spectrum” value [16] was “no indication of perturbation” and the “effect on CD spectrum” value [17] was “does not alter the CD”. For the same molecule, the “effect on structural ensemble (CD)” value [18] was “does not exhibit perturbations to the structural ensemble”.
